This note sets out measurements from ChEMBL document CHEMBL6115036, “Exploration of membrane-active cephalosporin derivatives as potent antibacterial agents against Staphylococcus aureus biofilms and persisters” (Eur J Med Chem, 2025).

Molecules are shown by their SMILES. Converted amounts (≈) assume the structure as drawn. The source made the active and inactive calls. The calls are words filed in the database; no cut-off is given here.

In one data set the test system is Enterococcus faecalis. The experiment in a line: Antimicrobial activity against Enterococcus faecalis incubated for 16 to 18 hrs by broth dilution assay. Conditions: time 16-18 hrs. In kind it is functional.
In data set [1] the test system is Staphylococcus aureus. As to the kind of experiment: Antimicrobial activity against Staphylococcus aureus incubated for 16 to 18 hrs by broth dilution assay. It counts as functional. Conditions: time 16-18 hrs. A general note: In broth dilution the organism is exposed to a series of concentrations in liquid medium.
For data set [2], the system named is Stenotrophomonas maltophilia. As to the kind of experiment: Antimicrobial activity against Stenotrophomonas maltophilia incubated for 16 to 18 hrs by broth dilution assay. Conditions: time 16-18 hrs. In kind it is functional.
The subject of another data set is Escherichia coli. The experiment in a line: Antimicrobial activity against Escherichia coli incubated for 16 to 18 hrs by broth dilution assay. In kind it is functional. The conditions noted are these: time 16-18 hrs.
Data set [3] is described as follows: Hemolytic activity in sheep red blood cells incubated for 1 hr. It counts as toxicity, cell-based, Ovis aries, Erythrocyte.
The subject of data set [4] is Staphylococcus aureus. The experiment in a line: Induction of cytoplasmic membrane depolarization in Staphylococcus aureus assessed as increase in fluorescence intensity at 32 ug/ml measured for 20 mins by DiSC3(5) dye based analysis. In kind it is functional, organism-based. Conditions: dose 32.0 µg/ml.
For data set [5], the system named is Staphylococcus aureus. As to the kind of experiment: Induction of inner membrane permeability in Staphylococcus aureus assessed as increase in fluorescence intensity at 32 ug/ml measured for 20 mins by PI dye based analysis. Conditions: dose 32.0 µg/ml. In kind it is functional, organism-based.
Data set [6] has as its system Staphylococcus aureus. As to the kind of experiment: Disruption of cell membrane in Staphylococcus aureus assessed as nucleic acid leakage at 32 ug/ml measured after 2 hrs by fluorescence based analysis. It counts as functional, organism-based. Conditions: dose 32.0 µg/ml.
Data set [7] concerns Staphylococcus aureus. The experiment in a line: Disruption of cell membrane in Staphylococcus aureus assessed as protein leakage at 32 ug/ml measured after 2 hrs by fluorescence based analysis. It counts as functional, organism-based. The conditions noted are these: dose 32.0 µg/ml.
The test system of data set [8] is Staphylococcus aureus. The experiment in a line: Antibacterial activity against Staphylococcus aureus assessed as fold increase in MIC in presence of 50% sheep plasma. It counts as functional.
For data set [9], the system named is Staphylococcus aureus. The experiment in a line: Antibacterial activity against Staphylococcus aureus assessed as fold increase in MIC in presence of 50% FBS. It counts as functional.
Data set [10] relates to Staphylococcus aureus. As to the kind of experiment: Induction of intracellular ROS accumulation in Staphylococcus aureus incubated overnight by DCFH-DA dye based analysis. In kind it is functional, organism-based.
Data set [11] in a line: Cytotoxicity against human HeLa cells incubated for 24 hrs by CCK8 assay. In kind it is toxicity, cell-based. Background: Formazan colour is commonly taken as a measure of viable cells.
The nature of data set [12]: Cytotoxicity against HUVEC cells incubated for 24 hrs by CCK8 assay. It counts as toxicity, cell-based. The conditions noted are these: human.
Data set [13] relates to Staphylococcus aureus. The experiment in a line: Inhibition of biofilm formation in Staphylococcus aureus assessed as reduction in number of live bacterial count at 16 times MIC incubated for 24 hrs. It counts as functional.
Data set [14] deals with Staphylococcus aureus. As to the kind of experiment: Induction of resistance development in Staphylococcus aureus assessed as fold increase in MIC at sub-MIC measured after 20 passages relative to control. It counts as functional.
The test system of data set [15] is Staphylococcus aureus. The experiment in a line: Induction of resistance development in norfloxacin-resistant Staphylococcus aureus assessed as fold increase in MIC at sub-MIC measured after 20 passages relative to control. In kind it is functional.
In data set [16] the test system is Staphylococcus aureus. The experiment in a line: Antibacterial activity against Staphylococcus aureus assessed as effect on quiescent cells at 100 to 200 times MIC incubated for 24 hrs. It counts as functional, organism-based.
In data set [17] the test system is Staphylococcus aureus. The experiment in a line: Antibacterial activity against rifampicin-induced persistant Staphylococcus aureus assessed as decrease in CFU at 100 times MIC measured for 10 hrs. In kind it is functional, organism-based.

On to `CCCCCCCCCCCC[n+]1ccc(-c2cc[n+](CC3=C(C(=O)[O-])N4C(=O)[C@@H](NC(=O)Cc5ccccc5)[C@H]4SC3)cc2)cc1.O=C([O-])C(F)(F)F`, for which the minimal inhibitory concentration (MIC) (as a rule, the lowest concentration found to suppress growth) was 4 µg/mL in the data set on Enterococcus faecalis, 0.25 µg/mL with Staphylococcus aureus [1], over 128 µg/mL in [2] and 128 µg/mL against Escherichia coli. Further, the HC50 (usually the concentration giving 50% haemolysis) at 1 h in data set [3] was determined as 333 µg/mL. For the same compound, the outcome with Staphylococcus aureus [4] and in the data set with Staphylococcus aureus [5] was Active. For the same compound, the outcome with Staphylococcus aureus [6] and in the data set on Staphylococcus aureus [7] was inactive.

As for `CC[C@H](C)[C@H](NC(=O)CN)C(=O)NCC(=O)N[C@@H](C)C(=O)N[C@H](C(=O)N[C@@H](CC(C)C)C(=O)N[C@@H](CCCCN)C(=O)N[C@H](C(=O)N[C@@H](CC(C)C)C(=O)N[C@H](C(=O)N[C@H](C(=O)NCC(=O)N[C@@H](CC(C)C)C(=O)N1CCC[C@H]1C(=O)N[C@@H](C)C(=O)N[C@@H](CC(C)C)C(=O)N[C@H](C(=O)N[C@@H](CO)C(=O)N[C@@H](Cc1c[nH]c2ccccc12)C(=O)N[C@H](C(=O)N[C@@H](CCCCN)C(=O)N[C@@H](CCCNC(=N)N)C(=O)N[C@@H](CCCCN)C(=O)N[C@@H](CCCNC(=N)N)C(=O)N[C@@H](CCC(N)=O)C(=O)N[C@@H](CCC(N)=O)C(N)=O)[C@@H](C)CC)[C@@H](C)CC)[C@@H](C)O)[C@@H](C)O)C(C)C)C(C)C` [MELITTIN], the MIC in the data set on Enterococcus faecalis turned out to be 2 µg/mL (≈ 0.703 µM); in [2], 8 µg/mL (≈ 2.81 µM). In addition, the “fold change (FC)” value in the data set on Staphylococcus aureus [8] and in the data set on Staphylococcus aureus [9] was over 32 in each case. Moreover, the Activity entry in the data set on Staphylococcus aureus [10] is “Dose-dependent-effect”. In addition, the CC50 (usually the concentration giving 50% cytotoxicity) at 24 h in data set [11] worked out at 3.9 µg/mL (≈ 1.37 µM); in data set [12], 3.8 µg/mL (≈ 1.33 µM).

As for `CN[C@H](CC(C)C)C(=O)N[C@H]1C(=O)N[C@@H](CC(N)=O)C(=O)N[C@H]2C(=O)N[C@H]3C(=O)N[C@H](C(=O)N[C@H](C(=O)O)c4cc(O)cc(O)c4-c4cc3ccc4O)[C@H](O)c3ccc(c(Cl)c3)Oc3cc2cc(c3O[C@@H]2O[C@H](CO)[C@@H](O)[C@H](O)[C@H]2O[C@H]2C[C@](C)(N)[C@H](O)[C@H](C)O2)Oc2ccc(cc2Cl)[C@H]1O` [VANCOMYCIN], in the data set with Staphylococcus aureus [13], the Activity is ~1 10^5CFU/ml. Besides, the MIC against Enterococcus faecalis worked out at 2 µg/mL (≈ 1.38 µM). In data set [3], this compound registered a 50% haemolytic concentration (HC50) at 1 h of over 1280 µg/mL.

On to `CCn1cc(C(=O)O)c(=O)c2cc(F)c(N3CCNCC3)cc21` [NORFLOXACIN], for which the “fold change (FC)” value in the data set with Staphylococcus aureus [14] and in the data set on Staphylococcus aureus [15] was 64 in each case.

Take `CO/N=C(\C(=O)N[C@@H]1C(=O)N2C(C(=O)O)=C(COC(C)=O)CS[C@H]12)c1csc(N)n1`: the outcome in the data set on Staphylococcus aureus [16] and in the data set with Staphylococcus aureus [17] was inactive.

In the case of `O=C(O)c1cn(C2CC2)c2cc(N3CCNCC3)c(F)cc2c1=O` [CIPROFLOXACIN], the “fold change (FC)” value in the data set on Staphylococcus aureus [15] is reported as 64. For the same compound, the result in the data set with Staphylococcus aureus [17] was inactive.

In the case of `CO[C@H]1/C=C/O[C@@]2(C)Oc3c(C)c(O)c4c(O)c(c(/C=N/N5CCN(C)CC5)c(O)c4c3C2=O)NC(=O)/C(C)=C\C=C\[C@H](C)[C@H](O)[C@@H](C)[C@@H](O)[C@@H](C)[C@H](OC(C)=O)[C@@H]1C`, the result with Staphylococcus aureus [17] was inactive.

For the compound `C[C@H]1COc2c(N3CCN(C)CC3)c(F)cc3c(=O)c(C(=O)O)cn1c23` [LEVOFLOXACIN ANHYDROUS], the “fold change (FC)” value in the data set with Staphylococcus aureus [15] turned out to be 16.

As for `CC(=O)NC[C@H]1CN(c2ccc(N3CCOCC3)c(F)c2)C(=O)O1` [LINEZOLID], the “fold change (FC)” value with Staphylococcus aureus [15] came to 4.
